Consider 33 compounds from patent US7138543B2, “Thiolalkyl benzoic acid derivatives” (Guilford Pharmaceuticals Inc., priority 2001, dated 2006).

In one experiment the test system is cortical cell cultures. The experiment in a line: In vitro assay on ischemia (potassium cyanide and 2-deoxyglucose insult). The class given is cell-based. To be noted: concentration required to cause a 50% reduction in glutamate toxicity following an ischemic insult; unit inferred. Here is the method: In vitro Assay on Ischemia
To examine the in vitro effect of the compounds of the invention on ischemia, cortical cell cultures were treated with various compounds of the invention during an ischemic insult utilizing potassium cyanide and 2-deoxyglucose, and for one hour thereafter. For a description of the experimental method used, see Vornov et al., J. Neurochem., Vol. 65, No. 4, pp. 1681–1691 (1995).

A further experiment addresses T1, NAALADase (Homo sapiens, UniProt Q04609).
T1 construct: from tissue; host or cells: unspecified tissue
The experiment in a line: In vitro inhibition of NAALADase activity. It is filed as biochemical. To be noted: unit inferred. Here is the method: In vitro Inhibition of NAALADase Activity
Protocol for Assaying in vitro Inhibition of NAALADase Activity
The following were combined in assay tubes: 100 μL of 10 mM CoCl2, 250 μL of 200 mM Tris chloride, 100 μL tissue, 100 μL of 10 mM NAALADase inhibitor in Bakers H2O, and Bakers H2O to make a total volume of 950 μL. Each assay tube was then incubated for 10 minutes in a 37° C. water bath. […] The assay was stopped by adding 1.0 ml of 0.1 M sodium phosphate.
Glutamate released by the action of the NAALADase enzyme was separated from the assay solution using an anion exchange resin. The resin was equilibrated to 25° C., 2.0 ml of the resin was added to a Pasteur pipette pre-loaded with a single glass bead, and each column was washed twice with distilled H2O. A column was placed over a scintillation vial and 200 μL of an assay sample was loaded onto the column. After draining, glutamate was eluted using two 1.0 ml washes of 1 M formic acid. After addition of 10 ml of scintillation cocktail, each sample was counted for 2 minutes on a scintillation counter.

Experiment [1] deals with chronic constrictive injury-induced rats. The experiment in a line: Neuropathic pain in CCI model (sciatic nerve ligation). The class given is in vivo. Here is the method:
In vivo Assay of NAALADase Inhibitors on Neuropathic Pain in CCI Model
Sciatic nerve ligation, consisting of 4 ligatures tied loosely around the sciatic nerve at 1 mm intervals proximal to the nerve trifurcation, was performed on rats. […] The rats were habituated to a Hargreaves apparatus. An infrared heat source was directed onto the dorsal surface of each rat's hindpaws and the time taken for the rat to withdraw its paws was noted. The difference in scores between the latency of the response for the paw on the operated side versus the paw on the unoperated control side was determined.

In experiment [2] the test system is STZ diabetic rats. The experiment in a line: Reversal of diabetic neuropathy in STZ model, delayed dosing: thermal hyperalgesia. It is filed as in vivo. To be noted: daily p.o., treatment from 5 weeks post STZ, within two weeks of treatment, FIG. 22. Here is the method:
(§1) In vivo Assay of NAALADase Inhibitors—Reversal of Diabetic Neuropathy in STZ Model
(§2) General Method for STZ Model—Delayed Dosing
(§3) Rats (200–225 grams) were injected with STZ (70 mg/kg) into the tail vein. Diabetes (>350 mg/dl) was confirmed in all rats, 4 weeks after STZ administration. Rats were left untreated until 35–49 days after STZ. Compound D (1, 3, or 10 mg/kg), Compound E (10 mg/kg), or vehicle were dosed daily p.o. following confirmation of hyperalgesia and/or nerve conduction velocity deficits. In separate experiments, onset of treatment was delayed until 60 to 90 days after STZ administration. Nerve conduction velocity or withdrawal response to thermal stimulation of hind paws was measured at intervals, usually bi-weekly for thermal response and monthly for nerve conduction velocity.
Animals were acclimated to the apparatus for at least 5 min. An infra-red source was placed under below the plantar surface of the rat hind-paw. The intensity of the source was adjusted so that latency for normal rats was about 10 secs. Animals were tested for thermal response latency according to the method of Hargreaves et al (Pain 77–88, 1988). Each animal was tested 8 times (4 each hind limb) and the latency of response recorded automatically to nearest 0.1 sec. An average of the last 4 measurements for each paw was calculated (8 total measurements) and noted for each rat.

In experiment [3] the test system is STZ diabetic rats. The experiment in a line: Reversal of diabetic neuropathy in STZ model, delayed dosing: nerve conduction velocity. The class given is in vivo. To be noted: daily p.o., within 8 weeks of dosing, persisted through 12 weeks, FIG. 23. Here is the method:
as §1, §2, §3
Nerve Conduction Velocity Measurements
Sensory and motor nerve conduction velocities were evaluated using the method of De Koning and Gispen (Peptides 8: 415–422, 1987). Electrophysiological evaluation was carried out within one hour of dosing. Animals were anesthetized with isoflurane and stimulating needle electrodes were inserted close to the sciatic nerve at the sciatic notch and the tibial nerve near the ankle. Recording electrodes were placed over the foot muscles. Stimuli were applied and responses recorded. Motor and sensory nerve conduction velocities were calculated by measuring the distance between the sciatic notch and ankle sites, and the latency between the M-wave and the H-reflex.

By EC50 is commonly meant the concentration that produces a half-maximal response. Usually IC50 stands for the concentration needed to halve the response being measured. Low values mean higher potency, high ones lower potency.

T1 sequence (Q04609 whole entry): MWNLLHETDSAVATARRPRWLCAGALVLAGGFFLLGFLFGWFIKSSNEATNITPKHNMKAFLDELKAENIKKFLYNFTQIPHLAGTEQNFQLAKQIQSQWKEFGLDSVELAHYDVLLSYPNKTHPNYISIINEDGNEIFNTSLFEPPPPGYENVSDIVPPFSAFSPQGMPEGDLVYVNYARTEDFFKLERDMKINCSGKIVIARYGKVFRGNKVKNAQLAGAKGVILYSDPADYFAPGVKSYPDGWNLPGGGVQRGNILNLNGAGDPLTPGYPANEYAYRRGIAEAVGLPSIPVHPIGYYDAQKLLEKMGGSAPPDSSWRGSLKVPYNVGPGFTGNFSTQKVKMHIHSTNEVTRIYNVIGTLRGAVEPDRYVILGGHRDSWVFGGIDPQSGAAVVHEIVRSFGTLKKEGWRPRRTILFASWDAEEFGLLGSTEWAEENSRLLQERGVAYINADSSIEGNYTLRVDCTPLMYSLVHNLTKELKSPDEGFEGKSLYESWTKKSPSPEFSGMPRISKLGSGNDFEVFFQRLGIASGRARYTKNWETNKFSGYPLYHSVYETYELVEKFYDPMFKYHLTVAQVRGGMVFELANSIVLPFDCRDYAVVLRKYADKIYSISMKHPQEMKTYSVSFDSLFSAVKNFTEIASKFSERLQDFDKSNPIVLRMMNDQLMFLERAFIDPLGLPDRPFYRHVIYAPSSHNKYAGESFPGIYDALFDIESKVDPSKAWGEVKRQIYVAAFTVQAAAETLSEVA

`O=C(O)c1ccccc1CCS` [Compound 1, 2-(2-mercaptoethyl)-benzoic acid] displayed a 50% effective concentration (EC50) with cortical cell cultures of 846 nM. Consider `O=C(O)c1ccc(COc2ccc(CCS)c(C(=O)O)c2)cc1` [Compound 3, 5-[(4-carboxyphenyl)methoxy]-2-(2-mercaptoethyl)-benzoic acid], for which the EC50 with cortical cell cultures came to 10000 nM.

In the experiment with cortical cell cultures, `O=C(O)c1cc(OCc2ccccc2)ccc1CCS` [Compound 4, 2-(2-mercaptoethyl)-5-(phenylmethoxy)-benzoic acid,] had an EC50 of 9600 nM. On the same count and under the same terms, the figure for `O=C(O)c1cccc(COc2ccc(CCS)c(C(=O)O)c2)c1` [Compound 6, 5-[(3-carboxyphenyl)methoxy]-2-(2-mercaptoethyl)-benzoic acid] is 84 nM. `O=C(O)c1c(CCS)cccc1OCc1ccccc1` [Compound 7, 2-(2-mercaptoethyl)-6-(phenylmethoxy)-benzoic acid] showed an IC50 at NAALADase of 89.8 nM. The same compound showed an EC50 in the experiment with cortical cell cultures of 96 nM. The compound `O=C(O)c1ccccc1COc1cccc(CCS)c1C(=O)O` [Compound 8, 2-[(2-carboxyphenyl)methoxy]-6-(2-mercaptoethyl)-benzoic acid] yielded an EC50 in the experiment on cortical cell cultures of 29 nM. As for `O=C(O)c1ccc(COc2cccc(CCS)c2C(=O)O)cc1` [Compound 9, 2-[(4-carboxyphenyl)methoxy]-6-(2-mercaptoethyl)-benzoic acid], the “withdrawal latency difference scores between operated and unoperated paws” value in experiment [1] (10, 1 or 0.1 mg/kg for 15 days after sciatic nerve ligation, FIG. 13) was “normalized the difference in scores”. This compound gave an IC50 on NAALADase of 28.8 nM. The compound further returned a concentration for a half-maximal effect (EC50) in the experiment with cortical cell cultures of 19 nM. For the compound `O=C(O)c1cccc(-c2cccc(CCS)c2C(=O)O)c1` [Compound 10, 3-(2-mercaptoethyl)-[1,1′-biphenyl]-2,3′-dicarboxylic acid], the “withdrawal latency difference scores between operated and unoperated paws” value in experiment [1] (0.1 mg/kg for 18 days after sciatic nerve ligation, FIG. 14) was “normalized the difference in scores”. Compound `O=C(O)c1ccc(COc2cccc(CCS)c2C(=O)O)cc1Br` [Compound 20, 2-[(3-bromo-4-carboxyphenyl)methoxy]-6-(2-mercaptoethyl)-benzoic acid] displayed an IC50 on NAALADase of 18 nM. This counts as double-digit nanomolar. As for `O=C(O)c1cc(CS)ccc1Br` [Compound 25, 2-bromo-5-(mercaptomethyl)-benzoic acid], the EC50 in the experiment with cortical cell cultures turned out to be 2000 nM. As for `O=C(O)c1cccc(-c2ccc(CS)cc2C(=O)O)c1` [Compound 26, 4-(mercaptomethyl)-[1,1′-biphenyl]-2,3′-dicarboxylic acid], the IC50 on NAALADase came out at 24.3 nM. The EC50 in the experiment with cortical cell cultures came to 151 nM. `O=C(O)c1cc(CS)ccc1OCc1ccccc1` [Compound 27, 5-(mercaptomethyl)-2-(phenylmethoxy)-benzoic acid] returned an EC50 in the experiment on cortical cell cultures of 728 nM. Consider `O=C(O)c1cccc(CCS)c1` [Compound 29, 3-(2-mercaptoethyl)-benzoic acid], for which it took 2400 nM to reach a half-maximal effect in the experiment on cortical cell cultures (EC50). As for `O=C(O)c1cccc(CS)c1` [Compound 30, 3-(mercaptomethyl)-benzoic acid], the EC50 in the experiment with cortical cell cultures turned out to be 619 nM. `O=C(O)c1ccccc1CS` [Compound 31, 2-(mercaptomethyl)-benzoic acid] came in with an IC50 at NAALADase of 100000 nM. The same measure, in the same setting: the figure for `O=C(O)c1c(CCS)cccc1OCc1ccc(Cl)cc1` [Compound 32, 2-[(4-chlorophenyl)methoxy]-6-(2-mercaptoethyl)-benzoic acid] is 25 nM. Still for that read-out and setting: the figure for `O=C(O)c1c(CCS)cccc1OCc1ccccc1-c1ccccc1` [Compound 33, 2-(biphenyl-2-ylmethoxy)-6-(2-mercaptoethyl)-benzoic acid] is 95 nM; for `O=C(O)c1cc(Br)cc(COc2cccc(CCS)c2C(=O)O)c1` [Compound 34, 2-[(3-bromo-5-carboxyphenyl)methoxy]-6-(2-mercaptoethyl)-benzoic acid] it is 0.9 nM. On the same count and under the same terms, the same measure for `O=C(O)c1ccc(Br)c(COc2cccc(CCS)c2C(=O)O)c1` [Compound 35, 2-[(2-bromo-5-carboxyphenyl)methoxy]-6-(2-mercaptoethyl)-benzoic acid]: 1.2 nM; for `COc1ccc(COc2cccc(CCS)c2C(=O)O)cc1` [Compound 36, 2-(2-mercaptoethyl)-6-[(4-methoxyphenyl)methoxy]-benzoic acid]: 100 nM. `Cc1ccc(COc2cccc(CCS)c2C(=O)O)cc1` [Compound 37, 2-(2-mercaptoethyl)-6-[(4-methylphenyl)methoxy]-benzoic acid] came in with an IC50 on NAALADase of 70 nM. The IC50 values of the last two compounds are within 1.5-fold of each other. The same measure, in the same setting: the same measure for `O=C(O)c1cc(COc2cccc(CCS)c2C(=O)O)ccc1Br` [Compound 38, 2-[(4-bromo-3-carboxyphenyl)methoxy]-6-(2-mercaptoethyl)-benzoic acid]: 0.8 nM; for `COc1ccc(C(=O)O)c(COc2cccc(CCS)c2C(=O)O)c1` [Compound 39, 2-[(2-carboxy-5-methoxyphenyl)methoxy]-6-(2-mercaptoethyl)-benzoicacid]: 40 nM; for `O=C(O)c1cccc(COc2cccc(CCS)c2C(=O)O)c1` [Compound 40, 2-(3-carboxy-benzyloxy)-6-(2-mercapto-ethyl)-benzoic acid]: 1 nM. In turn, `O=C(O)c1c(CCS)cccc1OCc1ccc(Br)cc1` [Compound 41, 2-(4-bromo-benzyloxy)-6-(2-mercapto-ethyl)-benzoic acid] registered an IC50 on NAALADase of 1250 nM. Compound `CC(C)(C)c1ccc(COc2cccc(CCS)c2C(=O)O)cc1` [Compound 42, 2-(4-tert-butyl-benzyloxy)-6-(2-mercapto-ethyl)-benzoic acid] came in with a 50% inhibitory concentration (IC50) against NAALADase of 300 nM. Regarding `O=C(O)c1c(CCS)cccc1OCc1cccc(Br)c1` [Compound 43, 2-(3-bromo-benzyloxy)-6-(2-mercapto-ethyl)-benzoic acid], half-maximal inhibition against NAALADase (IC50) was put at 104 nM. `COc1cccc(CCS)c1C(=O)O` [Compound 44, 2-(2-mercapto-ethyl)-6-methoxy-benzoicacid] returned an IC50 at NAALADase of 954 nM. `O=C(O)c1c(CCS)cccc1OC(c1ccccc1)c1ccccc1` [Compound 45, 2-benzhydryloxy-6-(2-mercapto-ethyl)-benzoic acid]: at NAALADase, the half-inhibitory concentration (IC50) was 35200 nM.

In turn, `O=C(O)c1c(CCS)cccc1OCc1cccc(Cl)c1` [Compound 46, 2-(3-chloro-benzyloxy)-6-(2-mercapto-ethyl)-benzoic acid] registered an IC50 at NAALADase of 12200 nM. Still for that read-out and setting: the figure for `O=C(O)c1c(CCS)cccc1-c1ccccc1` [Compound 47, 3-(2-mercapto-ethyl)-biphenyl-2-carboxylic acid] is 75400 nM; for `O=C(O)Cc1cccc(CCS)c1C(=O)O` [Compound 48, 2-carboxymethyl-6-(2-mercapto-ethyl)-benzoic acid] it is 43 nM. On to `O=C(O)c1cccc(CC(CCCS)C(=O)O)c1` (stereo not drawn) [Compound E, 3-Carboxy-alpha-(3-mercaptopropyl)-benzenepropanoic acid], for which the “neuropathic hyperalgesia (thermal response latency)” value with STZ diabetic rats [2] is reported as “reversed towards normal”. Also, the “motor nerve conduction velocity” value in the experiment on STZ diabetic rats [3] is given as “reversed the motor nerve conduction velocity towards normal”.
